Reference: ChEMBL document CHEMBL5674860, “Optimized Dual-Glo Assay to identify co-culture-induced drug vulnerabilities in 3D CRC models” (2024)

How the values were obtained:
Assay type in all cases: functional, Homo sapiens
Set-up in all cases: dose or concentration left out as unconfirmed
Colon cancer organoid [1] = assay: Optimized Dual-Glo assay to identify co-culture induced drug vulnerabilities using donated chemical probes and chemogenomics kinase set in O14 CRC organoid and F14 CAF mono and co-culture. […] Cell viability is reported both mono and co-culture models.
Colon cancer organoid [2] = assay: Optimized Dual-Glo assay to identify co-culture induced drug vulnerabilities using donated chemical probes and chemogenomics kinase set in O20 CRC organoid and F20 CAF mono and co-culture. […] Cell viability is reported both mono and co-culture models.
Colon cancer organoid [3] = assay: Optimized Dual-Glo assay to identify co-culture induced drug vulnerabilities using donated chemical probes and chemogenomics kinase set in O06 CRC organoid and F06 CAF mono and co-culture. […] Cell viability is reported both mono and co-culture models.
[4] = Culture type Co-Culture, Transduced with Lucferase2-P2A-EGFP lentivirus
[5] = Culture type Co-Culture, Transduced with Renilla-dsRed lentivirus
[6] = Culture type Mono-Culture, Transduced with Lucferase2-P2A-EGFP lentivirus
[7] = Culture type Mono-Culture, Transduced with Renilla-dsRed lentivirus

CC(C)[C@H](C(=O)Nc1ccc(C(=O)NO)cc1)c1ccccc1 [AR-42]
Cell Viability (Colon cancer organoid [1]; [4]): 19.466% | Cell Viability (Colon cancer organoid [1]; [5]): 585.967% | Cell Viability (Colon cancer organoid [1]; [6]): 17.1608% | Cell Viability (Colon cancer organoid [1]; [7]): 305.591% | Cell Viability (Colon cancer organoid [2]; [4]): 13.9159% | Cell Viability (Colon cancer organoid [2]; [5]): 352.85% | Cell Viability (Colon cancer organoid [2]; [6]): 21.6913% | Cell Viability (Colon cancer organoid [2]; [7]): 192.04% | Cell Viability (Colon cancer organoid [3]; [4]): 8.004% | Cell Viability (Colon cancer organoid [3]; [5]): 640.047% | Cell Viability (Colon cancer organoid [3]; [6]): 17.2646% | Cell Viability (Colon cancer organoid [3]; [7]): 486.211%

Cc1cnc(-c2cc(Cl)ccc2F)cc1-n1c(=O)n(CC(N)=O)c2ccccc21 [Al11]
Cell Viability (Colon cancer organoid [1]; [4]): 93.5042% | Cell Viability (Colon cancer organoid [1]; [5]): 89.0527% | Cell Viability (Colon cancer organoid [1]; [6]): 114.229% | Cell Viability (Colon cancer organoid [1]; [7]): 91.7467% | Cell Viability (Colon cancer organoid [2]; [4]): 99.824% | Cell Viability (Colon cancer organoid [2]; [5]): 109.542% | Cell Viability (Colon cancer organoid [2]; [6]): 113.608% | Cell Viability (Colon cancer organoid [2]; [7]): 109.646% | Cell Viability (Colon cancer organoid [3]; [4]): 79.8154% | Cell Viability (Colon cancer organoid [3]; [5]): 66.9379% | Cell Viability (Colon cancer organoid [3]; [6]): 96.9616% | Cell Viability (Colon cancer organoid [3]; [7]): 102.254%

Cc1ccccc1Oc1cc(-n2c(=O)cc(C(F)(F)F)[nH]c2=O)c2ccccc2c1Cl [BAY-069]
Cell Viability (Colon cancer organoid [1]; [4]): 114.551% | Cell Viability (Colon cancer organoid [1]; [5]): 130.948% | Cell Viability (Colon cancer organoid [1]; [6]): 135.188% | Cell Viability (Colon cancer organoid [1]; [7]): 102.99% | Cell Viability (Colon cancer organoid [2]; [4]): 83.88% | Cell Viability (Colon cancer organoid [2]; [5]): 119.466% | Cell Viability (Colon cancer organoid [2]; [6]): 87.9837% | Cell Viability (Colon cancer organoid [2]; [7]): 109.318% | Cell Viability (Colon cancer organoid [3]; [4]): 128.819% | Cell Viability (Colon cancer organoid [3]; [5]): 153.89% | Cell Viability (Colon cancer organoid [3]; [6]): 114.766% | Cell Viability (Colon cancer organoid [3]; [7]): 111.149%

Cn1c(-c2csc(C3CCN(CC4=NC5N=CC=CC5N4)CC3)n2)nc2ccccc21 (stereo not drawn) [BAY-070]
Cell Viability (Colon cancer organoid [1]; [4]): 71.6704% | Cell Viability (Colon cancer organoid [1]; [5]): 82.4795% | Cell Viability (Colon cancer organoid [1]; [6]): 106.637% | Cell Viability (Colon cancer organoid [1]; [7]): 95.1305% | Cell Viability (Colon cancer organoid [2]; [4]): 41.8948% | Cell Viability (Colon cancer organoid [2]; [5]): 84.0468% | Cell Viability (Colon cancer organoid [2]; [6]): 78.1822% | Cell Viability (Colon cancer organoid [2]; [7]): 83.7423% | Cell Viability (Colon cancer organoid [3]; [4]): 29.934% | Cell Viability (Colon cancer organoid [3]; [5]): 49.5381% | Cell Viability (Colon cancer organoid [3]; [6]): 49.5158% | Cell Viability (Colon cancer organoid [3]; [7]): 105.274%

NS(=O)(=O)c1cc(NC(=O)C2(c3ccccc3Cl)CC2)ccc1Oc1cccc(Cl)c1 [BAY-207]
Cell Viability (Colon cancer organoid [1]; [4]): 108.195% | Cell Viability (Colon cancer organoid [1]; [5]): 102.868% | Cell Viability (Colon cancer organoid [1]; [6]): 157.597% | Cell Viability (Colon cancer organoid [1]; [7]): 122.925% | Cell Viability (Colon cancer organoid [2]; [4]): 177.814% | Cell Viability (Colon cancer organoid [2]; [5]): 111.752% | Cell Viability (Colon cancer organoid [2]; [6]): 143.896% | Cell Viability (Colon cancer organoid [2]; [7]): 130.032% | Cell Viability (Colon cancer organoid [3]; [4]): 80.0716% | Cell Viability (Colon cancer organoid [3]; [5]): 155.512% | Cell Viability (Colon cancer organoid [3]; [6]): 77.1877% | Cell Viability (Colon cancer organoid [3]; [7]): 150.163%

CNCc1ccccc1-c1csc([C@@H](C)Nc2nc(C)nc3cc(OC)c(OC)cc23)c1 [BAY-293]
Cell Viability (Colon cancer organoid [1]; [4]): 46.6211% | Cell Viability (Colon cancer organoid [1]; [5]): 132.811% | Cell Viability (Colon cancer organoid [1]; [6]): 47.2835% | Cell Viability (Colon cancer organoid [1]; [7]): 107.217% | Cell Viability (Colon cancer organoid [2]; [4]): 78.2703% | Cell Viability (Colon cancer organoid [2]; [5]): 145.24% | Cell Viability (Colon cancer organoid [2]; [6]): 64.4683% | Cell Viability (Colon cancer organoid [2]; [7]): 82.7466% | Cell Viability (Colon cancer organoid [3]; [4]): 76.9111% | Cell Viability (Colon cancer organoid [3]; [5]): 225.989% | Cell Viability (Colon cancer organoid [3]; [6]): 4.78% | Cell Viability (Colon cancer organoid [3]; [7]): 87.8539%

Cc1cc(NC(=O)c2cccc(S(F)(F)(F)(F)F)c2)cc(-n2ccn3nc(-c4cccnc4)cc23)c1 [BAY-309]
Cell Viability (Colon cancer organoid [1]; [4]): 98.153% | Cell Viability (Colon cancer organoid [1]; [5]): 84.8781% | Cell Viability (Colon cancer organoid [1]; [6]): 155.954% | Cell Viability (Colon cancer organoid [1]; [7]): 76.6739% | Cell Viability (Colon cancer organoid [2]; [4]): 122.672% | Cell Viability (Colon cancer organoid [2]; [5]): 127.793% | Cell Viability (Colon cancer organoid [2]; [6]): 129.399% | Cell Viability (Colon cancer organoid [2]; [7]): 97.9255% | Cell Viability (Colon cancer organoid [3]; [4]): 84.4525% | Cell Viability (Colon cancer organoid [3]; [5]): 147.367% | Cell Viability (Colon cancer organoid [3]; [6]): 49.1708% | Cell Viability (Colon cancer organoid [3]; [7]): 77.7093%

O=C(N1CCS(=O)(=O)CC1)N1C[C@H](c2ccc(OC(F)(F)F)cc2)C[C@H](c2nc(C3CC3)no2)C1 [BAY-386]
Cell Viability (Colon cancer organoid [1]; [4]): 116.117% | Cell Viability (Colon cancer organoid [1]; [5]): 119.771% | Cell Viability (Colon cancer organoid [1]; [6]): 94.8331% | Cell Viability (Colon cancer organoid [1]; [7]): 98.6833% | Cell Viability (Colon cancer organoid [2]; [4]): 61.9652% | Cell Viability (Colon cancer organoid [2]; [5]): 114.29% | Cell Viability (Colon cancer organoid [2]; [6]): 99.9064% | Cell Viability (Colon cancer organoid [2]; [7]): 89.9943% | Cell Viability (Colon cancer organoid [3]; [4]): 131.392% | Cell Viability (Colon cancer organoid [3]; [5]): 144.172% | Cell Viability (Colon cancer organoid [3]; [6]): 106.882% | Cell Viability (Colon cancer organoid [3]; [7]): 101.013%

Cc1c(N2CCNCC2)nc2ccc(Br)cc2c1C(=O)NC[C@H](CCC(=O)O)c1ccccc1Cl [BAY-403]
Cell Viability (Colon cancer organoid [1]; [4]): 128.287% | Cell Viability (Colon cancer organoid [1]; [5]): 83.5136% | Cell Viability (Colon cancer organoid [1]; [6]): 111.567% | Cell Viability (Colon cancer organoid [1]; [7]): 88.9346% | Cell Viability (Colon cancer organoid [2]; [4]): 119.673% | Cell Viability (Colon cancer organoid [2]; [5]): 79.2483% | Cell Viability (Colon cancer organoid [2]; [6]): 97.0551% | Cell Viability (Colon cancer organoid [2]; [7]): 97.643% | Cell Viability (Colon cancer organoid [3]; [4]): 78.4474% | Cell Viability (Colon cancer organoid [3]; [5]): 70.4581% | Cell Viability (Colon cancer organoid [3]; [6]): 95.2254% | Cell Viability (Colon cancer organoid [3]; [7]): 113.122%

CN(C)c1ncnc(-c2ccc3nc(Nc4cc(CN5CCN(C(=O)CC(F)(F)F)CC5)ccn4)[nH]c3c2)c1Cl [BAY-440]
Cell Viability (Colon cancer organoid [1]; [4]): 103.771% | Cell Viability (Colon cancer organoid [1]; [5]): 112.238% | Cell Viability (Colon cancer organoid [1]; [6]): 114.79% | Cell Viability (Colon cancer organoid [1]; [7]): 113.849% | Cell Viability (Colon cancer organoid [2]; [4]): 123.006% | Cell Viability (Colon cancer organoid [2]; [5]): 109.622% | Cell Viability (Colon cancer organoid [2]; [6]): 117.784% | Cell Viability (Colon cancer organoid [2]; [7]): 126.413% | Cell Viability (Colon cancer organoid [3]; [4]): 92.9994% | Cell Viability (Colon cancer organoid [3]; [5]): 174.385% | Cell Viability (Colon cancer organoid [3]; [6]): 85.2405% | Cell Viability (Colon cancer organoid [3]; [7]): 88.7418%

Cc1noc([C@H]2C[C@@H](c3ccc(C(F)(F)F)cc3)CN(C(=O)N3CCS(=O)(=O)C3)C2)n1 [BAY-448]
Cell Viability (Colon cancer organoid [1]; [4]): 96.3881% | Cell Viability (Colon cancer organoid [1]; [5]): 112.512% | Cell Viability (Colon cancer organoid [1]; [6]): 127.621% | Cell Viability (Colon cancer organoid [1]; [7]): 97.5385% | Cell Viability (Colon cancer organoid [2]; [4]): 115.252% | Cell Viability (Colon cancer organoid [2]; [5]): 84.5218% | Cell Viability (Colon cancer organoid [2]; [6]): 119.935% | Cell Viability (Colon cancer organoid [2]; [7]): 108.615% | Cell Viability (Colon cancer organoid [3]; [4]): 105.176% | Cell Viability (Colon cancer organoid [3]; [5]): 127.928% | Cell Viability (Colon cancer organoid [3]; [6]): 104.997% | Cell Viability (Colon cancer organoid [3]; [7]): 116.857%

CC1=C(C#N)C(c2ccc3[nH]nc(C)c3c2)C(C#N)=C(C)N1 [BAY-474]
Cell Viability (Colon cancer organoid [1]; [4]): 198.7% | Cell Viability (Colon cancer organoid [1]; [5]): 101.908% | Cell Viability (Colon cancer organoid [1]; [6]): 71.8172% | Cell Viability (Colon cancer organoid [1]; [7]): 85.997% | Cell Viability (Colon cancer organoid [2]; [4]): 81.7867% | Cell Viability (Colon cancer organoid [2]; [5]): 102.241% | Cell Viability (Colon cancer organoid [2]; [6]): 98.8764% | Cell Viability (Colon cancer organoid [2]; [7]): 79.7467% | Cell Viability (Colon cancer organoid [3]; [4]): 148.587% | Cell Viability (Colon cancer organoid [3]; [5]): 192.268% | Cell Viability (Colon cancer organoid [3]; [6]): 98.9453% | Cell Viability (Colon cancer organoid [3]; [7]): 96.2381%

CC(=O)C1=C(C)N(c2cccc(C(F)(F)F)c2)C(=O)N[C@H]1c1ccc(C#N)nc1 [BAY-677]
Cell Viability (Colon cancer organoid [1]; [4]): 86.1981% | Cell Viability (Colon cancer organoid [1]; [5]): 131.912% | Cell Viability (Colon cancer organoid [1]; [6]): 107.006% | Cell Viability (Colon cancer organoid [1]; [7]): 91.8517% | Cell Viability (Colon cancer organoid [2]; [4]): 134.265% | Cell Viability (Colon cancer organoid [2]; [5]): 107.791% | Cell Viability (Colon cancer organoid [2]; [6]): 113.459% | Cell Viability (Colon cancer organoid [2]; [7]): 115.06% | Cell Viability (Colon cancer organoid [3]; [4]): 113.366% | Cell Viability (Colon cancer organoid [3]; [5]): 134.225% | Cell Viability (Colon cancer organoid [3]; [6]): 107.227% | Cell Viability (Colon cancer organoid [3]; [7]): 105.031%

CC(=O)C1=C(C)N(c2cccc(C(F)(F)F)c2)C(=O)N[C@@H]1c1ccc(C#N)nc1 [BAY-678]
Cell Viability (Colon cancer organoid [1]; [4]): 126.5% | Cell Viability (Colon cancer organoid [1]; [5]): 123.101% | Cell Viability (Colon cancer organoid [1]; [6]): 84.3173% | Cell Viability (Colon cancer organoid [1]; [7]): 104.156% | Cell Viability (Colon cancer organoid [2]; [4]): 140.099% | Cell Viability (Colon cancer organoid [2]; [5]): 133.591% | Cell Viability (Colon cancer organoid [2]; [6]): 110.356% | Cell Viability (Colon cancer organoid [2]; [7]): 85.3396% | Cell Viability (Colon cancer organoid [3]; [4]): 128.432% | Cell Viability (Colon cancer organoid [3]; [5]): 162.784% | Cell Viability (Colon cancer organoid [3]; [6]): 110.704% | Cell Viability (Colon cancer organoid [3]; [7]): 89.9312%
